Experimental data from PMC7101356, “Cross-site and cross-platform variability of automated patch clamp assessments of drug effects on human cardiac currents in recombinant cells” (Scientific Reports, 2020).
pIC50: −log10 of the molar value.

Tests used:
hERG [1] = biological target: T1, hERG (Homo sapiens, UniProt Q12809); parameters: expressed in transfected cells; host or cells: HEK293 or CHO, depending on site (site s06, Milnes protocol: HEK293); details: physiologic temperatures; cited from earlier work
peak hNav1.5 = biological target: T2, peak hNav1.5 (Homo sapiens, UniProt Q14524); assay: Automated patch clamp, peak hNav1.5 current block; type: cell-based
T2 construct: expressed in transfected cells; host or cells: HEK293 or CHO, depending on site
Protocol: Peak current was measured during the depolarizing step to −15 mV. Leak current was measured after applying a saturating concentration of a blocker such as lidocaine (2 mM) at the end of each experiment to completely block hNav1.5 current.
Concentration-response relationships for each test article were independently investigated, i.e., each cell received only one test article, typically evaluating multiple concentrations in a cumulative fashion (lowest to highest concentrations). However, some platforms tested only one concentration per well. Each concentration response was based on a minimum of four concentrations, with a minimum of three wells used for each concentration. In cases of high variability, more cells per concentration were recorded. Prior to drug addition, cells received an addition of vehicle to measure non-test article-related effects such as addition artifacts. At the end of the experiment, a supramaximal concentration of a known inhibitory reference compound was applied to assess leak current and appropriate responsiveness of the test system.
The steady state current at each concentration was used to determine the concentration-response relationships. Mean concentration-response data were fitted to a standard sigmoidal four-parameter logistic equation (GraphPad Prism 7; GraphPad Inc., La Jolla, CA) of the form: Y=Bottom+(Top−Bottom)/(1+10^∧(LogIC50−X)∗HillSlope) where Y is the current inhibition (in % of pre-drug control), X is the logarithm of drug concentration, and IC50 is the drug concentration producing half-maximal current inhibition. Curve fitting was performed using the following constraints: Top = 100%, Bottom = 0%, Hill Slope <2. No curve fitting was performed in cases with an obvious lack of a concentration-dependent current inhibition and/or small effect size (approximately ≤20%).

late hNav1.5 = biological target: T3, late hNav1.5 (Homo sapiens, UniProt Q14524); assay: Automated patch clamp, late hNav1.5 current block (ATX-II activated); type: cell-based
T3 construct: expressed in transfected cells; host or cells: HEK293 or CHO, depending on site

hERG [2] = biological target: T1, hERG; assay: in vitro; details: hERG K+ current inhibition, Mean
[3] = based on CiPA evaluations; cited from earlier work
hCav1.2 = hCav1.2 (Homo sapiens, UniProt Q13936); assay: Automated patch clamp, hCav1.2 current block
[4] = site_platform s06_p4, 1.00E-09 mol/L
[5] = site_platform s06_p4, 3.00E-07 mol/L
[6] = site_platform s07_p6, 1.00E-09 mol/L
[7] = site_platform s07_p6, 3.00E-07 mol/L
[8] = site_platform s13_p2, 1.00E-09 mol/L
[9] = site_platform s14_p1, 3.00E-07 mol/L

hCav1.2, sequence (Q13936 whole entry): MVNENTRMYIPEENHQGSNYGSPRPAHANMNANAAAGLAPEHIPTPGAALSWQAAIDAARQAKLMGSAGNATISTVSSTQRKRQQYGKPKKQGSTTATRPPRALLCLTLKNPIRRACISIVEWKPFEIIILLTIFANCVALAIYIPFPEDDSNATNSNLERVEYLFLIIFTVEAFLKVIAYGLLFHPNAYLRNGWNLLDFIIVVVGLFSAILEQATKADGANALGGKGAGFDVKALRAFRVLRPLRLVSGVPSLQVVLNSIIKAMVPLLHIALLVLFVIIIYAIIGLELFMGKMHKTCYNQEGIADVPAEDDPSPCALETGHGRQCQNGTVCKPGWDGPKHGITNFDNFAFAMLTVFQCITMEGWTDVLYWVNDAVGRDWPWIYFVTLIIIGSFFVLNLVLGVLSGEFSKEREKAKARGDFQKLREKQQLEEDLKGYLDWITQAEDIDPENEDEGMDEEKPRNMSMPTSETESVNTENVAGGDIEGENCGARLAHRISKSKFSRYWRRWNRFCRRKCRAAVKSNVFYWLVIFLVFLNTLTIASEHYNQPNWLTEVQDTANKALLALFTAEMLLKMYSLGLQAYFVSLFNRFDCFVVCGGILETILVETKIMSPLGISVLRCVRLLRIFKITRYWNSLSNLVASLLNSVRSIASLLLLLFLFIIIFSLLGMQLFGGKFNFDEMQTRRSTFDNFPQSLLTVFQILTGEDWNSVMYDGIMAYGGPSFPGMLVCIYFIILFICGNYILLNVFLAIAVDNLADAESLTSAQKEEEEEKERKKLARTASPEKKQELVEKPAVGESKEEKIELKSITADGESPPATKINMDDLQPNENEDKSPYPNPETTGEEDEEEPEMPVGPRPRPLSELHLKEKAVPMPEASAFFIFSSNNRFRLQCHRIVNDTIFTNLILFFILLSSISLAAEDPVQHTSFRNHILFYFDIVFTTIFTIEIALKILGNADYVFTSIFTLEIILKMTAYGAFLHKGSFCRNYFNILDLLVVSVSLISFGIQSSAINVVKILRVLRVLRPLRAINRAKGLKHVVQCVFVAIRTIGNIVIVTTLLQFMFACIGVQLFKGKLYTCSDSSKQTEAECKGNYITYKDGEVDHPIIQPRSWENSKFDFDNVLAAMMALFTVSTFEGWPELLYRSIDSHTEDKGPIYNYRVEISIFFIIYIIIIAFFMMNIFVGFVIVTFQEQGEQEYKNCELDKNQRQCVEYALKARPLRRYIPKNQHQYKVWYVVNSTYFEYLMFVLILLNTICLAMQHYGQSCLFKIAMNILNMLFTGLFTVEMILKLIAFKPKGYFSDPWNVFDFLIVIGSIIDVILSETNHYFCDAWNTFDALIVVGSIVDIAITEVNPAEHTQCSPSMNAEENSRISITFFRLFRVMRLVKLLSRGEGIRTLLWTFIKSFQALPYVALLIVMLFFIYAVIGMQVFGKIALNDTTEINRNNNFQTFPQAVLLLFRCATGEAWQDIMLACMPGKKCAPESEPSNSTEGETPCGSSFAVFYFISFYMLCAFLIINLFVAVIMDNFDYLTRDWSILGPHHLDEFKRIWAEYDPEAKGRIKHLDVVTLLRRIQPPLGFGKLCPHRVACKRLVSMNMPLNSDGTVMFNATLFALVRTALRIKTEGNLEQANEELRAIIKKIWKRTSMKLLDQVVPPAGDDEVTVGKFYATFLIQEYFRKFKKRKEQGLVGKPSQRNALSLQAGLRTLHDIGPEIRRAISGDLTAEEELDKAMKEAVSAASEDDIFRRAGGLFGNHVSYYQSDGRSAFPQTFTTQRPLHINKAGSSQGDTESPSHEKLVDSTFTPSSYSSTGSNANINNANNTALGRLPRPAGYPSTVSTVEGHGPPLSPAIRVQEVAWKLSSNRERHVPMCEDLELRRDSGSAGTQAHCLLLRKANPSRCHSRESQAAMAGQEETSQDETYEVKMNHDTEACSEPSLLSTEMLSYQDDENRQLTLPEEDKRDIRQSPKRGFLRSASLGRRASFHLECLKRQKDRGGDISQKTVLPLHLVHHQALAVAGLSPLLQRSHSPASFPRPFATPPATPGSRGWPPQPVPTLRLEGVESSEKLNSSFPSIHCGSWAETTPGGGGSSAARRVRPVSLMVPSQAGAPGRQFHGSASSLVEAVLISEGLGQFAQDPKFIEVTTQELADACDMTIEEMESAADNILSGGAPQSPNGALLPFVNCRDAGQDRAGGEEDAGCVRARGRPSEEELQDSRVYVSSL
hCav1.2, sequence (Q08289 whole entry partner): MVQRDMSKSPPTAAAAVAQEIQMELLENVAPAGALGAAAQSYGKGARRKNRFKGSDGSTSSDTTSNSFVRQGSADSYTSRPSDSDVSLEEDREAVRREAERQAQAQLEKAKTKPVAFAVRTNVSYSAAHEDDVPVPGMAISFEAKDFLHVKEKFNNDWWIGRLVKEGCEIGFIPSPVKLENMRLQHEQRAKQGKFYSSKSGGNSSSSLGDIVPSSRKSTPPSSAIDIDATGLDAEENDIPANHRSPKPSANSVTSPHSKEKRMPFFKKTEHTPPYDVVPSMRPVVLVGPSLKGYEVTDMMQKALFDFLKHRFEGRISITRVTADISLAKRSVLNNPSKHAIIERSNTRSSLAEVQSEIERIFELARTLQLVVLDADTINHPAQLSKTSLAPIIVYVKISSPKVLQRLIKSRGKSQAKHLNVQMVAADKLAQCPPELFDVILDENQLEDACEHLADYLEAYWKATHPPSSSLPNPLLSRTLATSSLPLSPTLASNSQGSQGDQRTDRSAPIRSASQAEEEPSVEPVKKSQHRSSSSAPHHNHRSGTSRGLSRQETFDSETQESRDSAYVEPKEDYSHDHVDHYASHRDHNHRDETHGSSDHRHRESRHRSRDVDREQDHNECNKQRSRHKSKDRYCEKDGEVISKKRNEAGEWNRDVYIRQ
hCav1.2, sequence (P54289 25-956 partner limits assumed): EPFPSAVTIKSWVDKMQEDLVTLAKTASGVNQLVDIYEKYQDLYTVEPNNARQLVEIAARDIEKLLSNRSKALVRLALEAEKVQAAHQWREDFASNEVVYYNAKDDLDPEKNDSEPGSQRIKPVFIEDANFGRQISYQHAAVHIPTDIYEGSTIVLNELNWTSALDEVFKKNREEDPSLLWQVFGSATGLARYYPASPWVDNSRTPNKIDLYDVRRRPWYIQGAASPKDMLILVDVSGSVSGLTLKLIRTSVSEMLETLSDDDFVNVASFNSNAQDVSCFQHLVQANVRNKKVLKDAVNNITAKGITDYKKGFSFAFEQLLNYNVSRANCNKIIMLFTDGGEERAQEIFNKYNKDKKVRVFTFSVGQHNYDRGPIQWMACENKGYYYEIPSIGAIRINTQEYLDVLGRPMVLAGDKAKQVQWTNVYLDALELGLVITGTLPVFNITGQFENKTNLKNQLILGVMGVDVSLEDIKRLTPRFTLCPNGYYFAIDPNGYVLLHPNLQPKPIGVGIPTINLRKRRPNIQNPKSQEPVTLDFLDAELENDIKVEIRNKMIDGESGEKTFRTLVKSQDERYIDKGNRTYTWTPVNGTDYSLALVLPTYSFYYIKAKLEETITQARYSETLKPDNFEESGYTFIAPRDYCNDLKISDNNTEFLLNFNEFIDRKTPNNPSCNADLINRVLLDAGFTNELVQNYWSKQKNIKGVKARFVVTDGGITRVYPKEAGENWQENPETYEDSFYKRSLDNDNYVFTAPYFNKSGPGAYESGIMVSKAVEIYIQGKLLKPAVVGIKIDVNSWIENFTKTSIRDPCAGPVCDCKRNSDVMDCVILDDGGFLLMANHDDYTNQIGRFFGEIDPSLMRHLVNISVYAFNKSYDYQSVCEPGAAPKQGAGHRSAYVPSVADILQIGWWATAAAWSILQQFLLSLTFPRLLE
hCav1.2, sequence (P54289 957-1103 partner limits assumed): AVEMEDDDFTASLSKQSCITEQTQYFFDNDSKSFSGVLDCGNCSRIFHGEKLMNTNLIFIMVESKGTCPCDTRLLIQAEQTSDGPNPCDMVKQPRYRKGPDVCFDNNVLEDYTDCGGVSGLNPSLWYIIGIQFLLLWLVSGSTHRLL
T1 sequence (Q12809 whole entry): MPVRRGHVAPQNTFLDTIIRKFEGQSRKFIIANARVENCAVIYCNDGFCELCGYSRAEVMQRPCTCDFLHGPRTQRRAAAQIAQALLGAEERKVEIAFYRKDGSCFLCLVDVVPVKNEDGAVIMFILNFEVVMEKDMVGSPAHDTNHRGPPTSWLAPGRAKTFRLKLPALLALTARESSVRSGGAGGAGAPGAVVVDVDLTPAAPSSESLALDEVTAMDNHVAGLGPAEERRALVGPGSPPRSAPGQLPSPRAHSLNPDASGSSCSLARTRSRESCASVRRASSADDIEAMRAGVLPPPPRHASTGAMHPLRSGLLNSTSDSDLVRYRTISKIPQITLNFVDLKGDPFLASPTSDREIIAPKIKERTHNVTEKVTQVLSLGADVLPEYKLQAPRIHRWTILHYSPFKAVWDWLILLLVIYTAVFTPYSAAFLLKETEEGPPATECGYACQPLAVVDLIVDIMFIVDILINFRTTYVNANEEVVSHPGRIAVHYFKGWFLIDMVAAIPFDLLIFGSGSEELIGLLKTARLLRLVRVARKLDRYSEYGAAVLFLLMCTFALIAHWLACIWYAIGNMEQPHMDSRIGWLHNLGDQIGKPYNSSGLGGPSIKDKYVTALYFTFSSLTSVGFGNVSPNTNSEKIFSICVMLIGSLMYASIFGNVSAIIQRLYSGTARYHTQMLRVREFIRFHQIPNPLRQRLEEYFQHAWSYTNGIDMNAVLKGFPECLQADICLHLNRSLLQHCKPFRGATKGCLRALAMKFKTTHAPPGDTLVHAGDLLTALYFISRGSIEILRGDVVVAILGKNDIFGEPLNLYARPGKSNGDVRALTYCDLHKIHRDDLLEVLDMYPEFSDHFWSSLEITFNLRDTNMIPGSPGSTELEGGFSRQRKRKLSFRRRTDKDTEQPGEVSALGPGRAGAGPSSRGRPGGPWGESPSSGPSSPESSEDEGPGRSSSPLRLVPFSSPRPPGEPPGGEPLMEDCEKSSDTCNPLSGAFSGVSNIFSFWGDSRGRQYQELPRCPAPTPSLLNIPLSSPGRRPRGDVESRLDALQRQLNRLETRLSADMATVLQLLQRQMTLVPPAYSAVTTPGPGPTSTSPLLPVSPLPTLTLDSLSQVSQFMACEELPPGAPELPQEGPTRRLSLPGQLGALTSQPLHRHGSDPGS

O=c1[nH]c2ccccc2n1C1CCN(CCCC(c2ccc(F)cc2)c2ccc(F)cc2)CC1 [pimozide]
difference of hERG IC50 between two manual patch clamp laboratories (hERG [1]): 44 fold

COc1cc(N)c(Cl)cc1C(=O)NC1CCN(CCCOc2ccc(F)cc2)CC1OC (stereo not drawn) [cis, cisapride]
peak hNav1.5 Na+ current inhibition (result in words) (peak hNav1.5; no inhibition = no obvious concentration-dependent current block and/or no curve fitting performed, all sites): no inhibition
log IC50, peak hNav1.5 Na+ current inhibition (peak hNav1.5; site_platform s01_p1): no inh.
Peak hNav1.5 Na+ current inhibition, Mean (peak hNav1.5; site_platform s01_p1, 1.00E-09 mol/L): 55.1%
Peak hNav1.5 Na+ current inhibition, Mean (peak hNav1.5; site_platform s01_p1, 3.00E-07 mol/L): 41.7%
log IC50, peak hNav1.5 Na+ current inhibition (peak hNav1.5; site_platform s02_p2): no inh.
Peak hNav1.5 Na+ current inhibition, Mean (peak hNav1.5; site_platform s02_p2, 1.00E-09 mol/L): 0.1%
Peak hNav1.5 Na+ current inhibition, Mean (peak hNav1.5; site_platform s02_p2, 3.00E-07 mol/L): 4.3%
log IC50, peak hNav1.5 Na+ current inhibition (peak hNav1.5; site_platform s04_p3): no inh.
Peak hNav1.5 Na+ current inhibition, Mean (peak hNav1.5; site_platform s04_p3, 1.00E-09 mol/L): 1.4%
Peak hNav1.5 Na+ current inhibition, Mean (peak hNav1.5; site_platform s04_p3, 3.00E-07 mol/L): 9.8%
log IC50, peak hNav1.5 Na+ current inhibition (peak hNav1.5; site_platform s06_p4): no inh.
Peak hNav1.5 Na+ current inhibition, Mean (peak hNav1.5; [4]): -1.5%
Peak hNav1.5 Na+ current inhibition, Mean (peak hNav1.5; [5]): 6.3%
log IC50, peak hNav1.5 Na+ current inhibition (peak hNav1.5; site_platform s07_p6): no inh.
Peak hNav1.5 Na+ current inhibition, Mean (peak hNav1.5; [6]): 3.2%
Peak hNav1.5 Na+ current inhibition, Mean (peak hNav1.5; [7]): 12.5%
log IC50, peak hNav1.5 inhibition (peak hNav1.5; site_platform s10_p3): no inh.
Peak hNav1.5 Na+ current inhibition, Mean (peak hNav1.5; site_platform s10_p3, 1.00E-09 mol/L): -1.1%
Peak hNav1.5 Na+ current inhibition, Mean (peak hNav1.5; site_platform s10_p3, 3.00E-07 mol/L): 11.3%
log IC50, peak hNav1.5 inhibition (peak hNav1.5; site_platform s11_p1): no inh.
Peak hNav1.5 Na+ current inhibition, Mean (peak hNav1.5; site_platform s11_p1, 1.00E-09 mol/L): 8.6%
Peak hNav1.5 Na+ current inhibition, Mean (peak hNav1.5; site_platform s11_p1, 3.00E-07 mol/L): 10.0%
log IC50, peak hNav1.5 inhibition (peak hNav1.5; site_platform s12_p2): no inh.
Peak hNav1.5 Na+ current inhibition, Mean (peak hNav1.5; site_platform s12_p2, 1.00E-09 mol/L): -0.2%
Peak hNav1.5 Na+ current inhibition, Mean (peak hNav1.5; site_platform s12_p2, 3.00E-07 mol/L): 6.8%
log IC50, peak hNav1.5 inhibition (peak hNav1.5; site_platform s13_p2): no inh.
Peak hNav1.5 Na+ current inhibition, Mean (peak hNav1.5; [8]): -1.8%
log IC50, peak hNav1.5 inhibition (peak hNav1.5; site_platform s14_p1): no inh.
Peak hNav1.5 Na+ current inhibition, Mean (peak hNav1.5; [9]): -0.4%
log IC50, peak hNav1.5 inhibition (peak hNav1.5; site_platform s15_p1): no inh.
Peak hNav1.5 Na+ current inhibition, Mean (peak hNav1.5; site_platform s15_p1, 1.00E-09 mol/L): 10.3%
Peak hNav1.5 Na+ current inhibition, Mean (peak hNav1.5; site_platform s15_p1, 3.00E-07 mol/L): 21.4%
log IC50, peak hNav1.5 inhibition (peak hNav1.5; site_platform s16_p3): no inh.
Peak hNav1.5 Na+ current inhibition, Mean (peak hNav1.5; site_platform s16_p3, 1.00E-09 mol/L): 3.1%
Peak hNav1.5 Na+ current inhibition, Mean (peak hNav1.5; site_platform s16_p3, 3.00E-07 mol/L): 13.4%
log IC50, peak hNav1.5 inhibition (peak hNav1.5; site_platform s17_p1): no inh.
Peak hNav1.5 Na+ current inhibition, Mean (peak hNav1.5; site_platform s17_p1, 3.00E-07 mol/L): 1.3%
log IC50, peak hNav1.5 inhibition (peak hNav1.5; site_platform s18_p1): no inh.
Peak hNav1.5 Na+ current inhibition, Mean (peak hNav1.5; site_platform s18_p1, 1.00E-09 mol/L): -22.5%
Peak hNav1.5 Na+ current inhibition, Mean (peak hNav1.5; site_platform s18_p1, 3.00E-07 mol/L): 1.0%
log IC50, peak hNav1.5 inhibition (peak hNav1.5; site_platform s19_p3): no inh.
Peak hNav1.5 Na+ current inhibition, Mean (peak hNav1.5; site_platform s19_p3, 1.00E-09 mol/L): 6.7%
Peak hNav1.5 Na+ current inhibition, Mean (peak hNav1.5; site_platform s19_p3, 3.00E-07 mol/L): 20.0%
log IC50, late hNav1.5 inhibition (late hNav1.5; site_platform s06_p4): no inh.
Late hNav1.5 Na+ current inhibition, Mean (late hNav1.5; [4]): -0.7%
Late hNav1.5 Na+ current inhibition, Mean (late hNav1.5; [5]): 31.8%
log IC50, late hNav1.5 inhibition (late hNav1.5; site_platform s07_p6): no inh.
Late hNav1.5 Na+ current inhibition, Mean (late hNav1.5; [6]): 4.3%
Late hNav1.5 Na+ current inhibition, Mean (late hNav1.5; [7]): -17.0%
log IC50, late hNav1.5 inhibition (late hNav1.5; site_platform s13_p2): no inh.
Late hNav1.5 Na+ current inhibition, Mean (late hNav1.5; [8]): -16.7%
Late hNav1.5 Na+ current inhibition, Mean (late hNav1.5; site_platform s13_p2, 3.00E-07 mol/L): 7.2%
log IC50, late hNav1.5 inhibition (late hNav1.5; site_platform s14_p1): no inh.
Late hNav1.5 Na+ current inhibition, Mean (late hNav1.5; site_platform s14_p1, 1.00E-09 mol/L): -6.9%
Late hNav1.5 Na+ current inhibition, Mean (late hNav1.5; [9]): -6.3%
inhibition at 4 min, 1e-09 mol/L (hERG [2]): 7.2%
inhibition at 4 min, 3e-07 mol/L (hERG [2]): 68.5%
inhibition at 7 min, 1e-09 mol/L (hERG [2]): 12%
TdP Risk Category [3]: Intermediate
pIC50 (hCav1.2; log IC50, half-maximal inhibitory concentration, site s16_p3): 6.35
log IC50, half-maximal inhibitory concentration (hCav1.2; site s01_p1): no inh.
Peak hCav1.2 Ca2+ current inhibition, Mean (hCav1.2; site s01_p1, 1.00E-09 mol/L): 7.4%
Peak hCav1.2 Ca2+ current inhibition, Mean (hCav1.2; site s01_p1, 3.00E-07 mol/L): 8.1%
log IC50, half-maximal inhibitory concentration (hCav1.2; site s02_p2, corrected for rundown): no inh.
Peak hCav1.2 Ca2+ current inhibition, Mean (hCav1.2; site s02_p2, corrected for rundown, 1.00E-09 mol/L): -5.7%
Peak hCav1.2 Ca2+ current inhibition, Mean (hCav1.2; site s02_p2, corrected for rundown, 3.00E-07 mol/L): 14.5%
log IC50, half-maximal inhibitory concentration (hCav1.2; site s06_p4): no inh.
Peak hCav1.2 Ca2+ current inhibition, Mean (hCav1.2; site s06_p4, 1.00E-09 mol/L): -8.1%
Peak hCav1.2 Ca2+ current inhibition, Mean (hCav1.2; site s06_p4, 3.00E-07 mol/L): -6.0%
log IC50, half-maximal inhibitory concentration (hCav1.2; site s11_p1): no inh.
Peak hCav1.2 Ca2+ current inhibition, Mean (hCav1.2; site s11_p1, 1.00E-09 mol/L): 7.8%
Peak hCav1.2 Ca2+ current inhibition, Mean (hCav1.2; site s11_p1, 3.00E-07 mol/L): 10.4%
log IC50, half-maximal inhibitory concentration (hCav1.2; site s14_p1): no inh.
Peak hCav1.2 Ca2+ current inhibition, Mean (hCav1.2; site s14_p1, 1.00E-09 mol/L): -10.3%
Peak hCav1.2 Ca2+ current inhibition, Mean (hCav1.2; site s14_p1, 3.00E-07 mol/L): -19.9%
nH, Hill slope (hCav1.2; site s16_p3): 0.24
Peak hCav1.2 Ca2+ current inhibition, Mean (hCav1.2; site s16_p3, 1.00E-09 mol/L): 20.1%
Peak hCav1.2 Ca2+ current inhibition, Mean (hCav1.2; site s16_p3, 3.00E-07 mol/L): 49.1%
log IC50, half-maximal inhibitory concentration (hCav1.2; site s18_p1): no inh.
Peak hCav1.2 Ca2+ current inhibition, Mean (hCav1.2; site s18_p1, 1.00E-09 mol/L): 2.8%
Peak hCav1.2 Ca2+ current inhibition, Mean (hCav1.2; site s18_p1, 3.00E-07 mol/L): -16.5%
